Where two headings read alike, the source gives them in different places. One block for each compound: values may come before it. Where a SMILES comes first, the peptide text is derived from it. Side-chain parts run from the residue outwards. [ ]: non-standard residue; d: D form. The star is where a group is joined. Nicotinoyl = O=C(c1cccnc1)*; Nle = CCCC[C@H](N)C(=O)O; Cbz = O=C(OCc1ccccc1)*
Key:
[1] = molecular target: AT4 receptor; assay: Competition for [125I]Ang IV binding on prefrontal cortical brain sections (in vitro receptor autoradiography); design: species or system Macaca fascicularis; settings: for IC50: monkey prefrontal cortical sections, read-out: IC50 for competing for [125I]Ang IV binding; for Competition for [125I]Ang IV binding: even at concentrations of 10 mM
[2] = tested on: embryonic chicken sympathetic neurons
[3] = tested on: AT4 receptor; settings: literature; mediated via the AT4 receptor; cited from earlier work
[4] = tested on: AT4 receptor sites; assay: Cross-displacement of [125I]LVV-haemorphin-7 and [125I]Ang IV binding on sheep hindbrain sections
Procedure: Sheep hindbrain sections were used to compare the distribution of ^125I-LVV-haemorphin-7 binding and AT4 receptor sites. Sections at 10 μm thickness were equilibrated to 22° C. (30 min), and then preincubated for 30 min in an isotonic buffer containing 50 mM Tris, 150 mM sodium chloride, 5 mM EDTA, 100 μM phenylmethylsulfonyl fluoride, 20 μM bestatin and 0.1% bovine serum albumin, pH 7.4, before a further 2 h incubation in the same buffer containing 2.84 μCi of [^125I]LVV-haemorphin-7 or [125I]Ang IV (approximately 140 pM). The binding of the radioligands was cross-displaced with either 1 μM unlabelled LVV-haemorphin-7 or Ang IV. After incubation, the sections were given three 2 min washes in buffer at 4° C., and exposed to X-ray film for 14 to 28 d.

[5] = molecular target: T1, embryonic chicken Ang IV binding site (AT4 receptor) (Gallus gallus, UniProt F1NNE7); assay: Competition for [125I]Ang IV binding to E13 chicken chorioallantoic membranes; settings: for Concentration at which only 50% of the [125I]Ang IV sites were competed for: E13 chicken CAM, only 50% of the sites
T1 sequence (F1NNE7 1-1024): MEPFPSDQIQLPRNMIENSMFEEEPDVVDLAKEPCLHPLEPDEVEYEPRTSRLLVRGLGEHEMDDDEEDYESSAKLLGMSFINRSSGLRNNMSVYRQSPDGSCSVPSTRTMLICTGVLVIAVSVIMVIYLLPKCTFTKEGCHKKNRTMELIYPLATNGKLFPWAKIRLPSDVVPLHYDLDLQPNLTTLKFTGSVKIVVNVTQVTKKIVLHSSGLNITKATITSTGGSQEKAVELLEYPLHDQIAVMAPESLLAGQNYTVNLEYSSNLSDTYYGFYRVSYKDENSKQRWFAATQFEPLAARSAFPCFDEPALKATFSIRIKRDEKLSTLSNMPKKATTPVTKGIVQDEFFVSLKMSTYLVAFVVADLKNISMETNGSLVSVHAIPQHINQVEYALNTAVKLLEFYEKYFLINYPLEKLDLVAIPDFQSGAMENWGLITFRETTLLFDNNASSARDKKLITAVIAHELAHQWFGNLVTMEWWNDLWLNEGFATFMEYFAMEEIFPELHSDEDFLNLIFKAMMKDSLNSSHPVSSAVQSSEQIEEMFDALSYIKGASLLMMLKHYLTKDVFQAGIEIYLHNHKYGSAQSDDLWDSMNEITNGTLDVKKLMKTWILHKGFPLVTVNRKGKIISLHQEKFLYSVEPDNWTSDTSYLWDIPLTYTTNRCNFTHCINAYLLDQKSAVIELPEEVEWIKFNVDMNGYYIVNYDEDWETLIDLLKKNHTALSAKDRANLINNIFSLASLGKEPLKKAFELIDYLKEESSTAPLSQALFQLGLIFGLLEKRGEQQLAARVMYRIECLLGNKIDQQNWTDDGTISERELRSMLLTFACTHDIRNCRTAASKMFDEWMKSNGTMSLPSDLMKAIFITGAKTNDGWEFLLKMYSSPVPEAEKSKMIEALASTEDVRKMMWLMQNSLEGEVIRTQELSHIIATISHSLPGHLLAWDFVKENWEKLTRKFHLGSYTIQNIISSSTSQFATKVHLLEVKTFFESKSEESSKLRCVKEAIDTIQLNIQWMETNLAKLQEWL

[6] = molecular target: T2, AT4 receptor (Ovis aries, UniProt A0ACI6PQ17); assay: Competition for [125I]LVV-haemorphin-7 binding to sheep cerebellar cortical membranes; settings: read-out: IC50 for competing for 125I-LVV-haemorphin-7 binding
[7] = molecular target: T2, AT4 receptor; assay: Competition for [125I]Ang IV binding to sheep cerebellar cortical membranes
[8] = molecular target: Ang IV binding site (AT4 receptor) (Homo sapiens, UniProt Q9UIQ6); settings: literature; cited from earlier work
[9] = tested on: scopolamine-induced amnesia
[10] = tested on: scopolamine-induced amnesia; settings: rat, in vivo
[11] = 10^−8 M Ang II, test substance 1 μM
[12] = 10^−8 M Ang IV, test substance 1 μM

T2 sequence (A0ACI6PQ17 1-1050): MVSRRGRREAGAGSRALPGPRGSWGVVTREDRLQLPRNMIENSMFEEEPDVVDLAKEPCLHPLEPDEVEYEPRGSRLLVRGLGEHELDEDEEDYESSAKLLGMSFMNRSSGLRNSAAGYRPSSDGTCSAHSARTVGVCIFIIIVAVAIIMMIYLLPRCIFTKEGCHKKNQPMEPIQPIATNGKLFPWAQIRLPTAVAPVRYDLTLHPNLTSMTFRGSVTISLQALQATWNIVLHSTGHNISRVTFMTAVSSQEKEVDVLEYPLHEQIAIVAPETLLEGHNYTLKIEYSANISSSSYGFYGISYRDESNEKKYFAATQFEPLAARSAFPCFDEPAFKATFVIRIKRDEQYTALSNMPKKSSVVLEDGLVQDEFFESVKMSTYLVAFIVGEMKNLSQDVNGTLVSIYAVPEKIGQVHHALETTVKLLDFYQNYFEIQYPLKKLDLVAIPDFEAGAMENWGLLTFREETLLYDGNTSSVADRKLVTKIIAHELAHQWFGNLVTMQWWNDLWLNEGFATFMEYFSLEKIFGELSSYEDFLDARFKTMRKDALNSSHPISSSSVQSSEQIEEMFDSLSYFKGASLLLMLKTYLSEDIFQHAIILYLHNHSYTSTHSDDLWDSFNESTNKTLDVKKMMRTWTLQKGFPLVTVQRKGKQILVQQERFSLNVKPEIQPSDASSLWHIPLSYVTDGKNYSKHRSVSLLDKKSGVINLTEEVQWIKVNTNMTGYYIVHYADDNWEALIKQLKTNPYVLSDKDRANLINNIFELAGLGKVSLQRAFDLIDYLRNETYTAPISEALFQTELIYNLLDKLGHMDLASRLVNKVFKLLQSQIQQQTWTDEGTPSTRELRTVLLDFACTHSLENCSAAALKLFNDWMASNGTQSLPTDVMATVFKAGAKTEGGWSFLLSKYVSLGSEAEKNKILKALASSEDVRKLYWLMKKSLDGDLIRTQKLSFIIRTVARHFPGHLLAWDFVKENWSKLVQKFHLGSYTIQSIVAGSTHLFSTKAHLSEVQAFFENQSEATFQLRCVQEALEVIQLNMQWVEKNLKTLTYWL
Sequence of Ang IV binding site (AT4 receptor) (Q9UIQ6 whole entry): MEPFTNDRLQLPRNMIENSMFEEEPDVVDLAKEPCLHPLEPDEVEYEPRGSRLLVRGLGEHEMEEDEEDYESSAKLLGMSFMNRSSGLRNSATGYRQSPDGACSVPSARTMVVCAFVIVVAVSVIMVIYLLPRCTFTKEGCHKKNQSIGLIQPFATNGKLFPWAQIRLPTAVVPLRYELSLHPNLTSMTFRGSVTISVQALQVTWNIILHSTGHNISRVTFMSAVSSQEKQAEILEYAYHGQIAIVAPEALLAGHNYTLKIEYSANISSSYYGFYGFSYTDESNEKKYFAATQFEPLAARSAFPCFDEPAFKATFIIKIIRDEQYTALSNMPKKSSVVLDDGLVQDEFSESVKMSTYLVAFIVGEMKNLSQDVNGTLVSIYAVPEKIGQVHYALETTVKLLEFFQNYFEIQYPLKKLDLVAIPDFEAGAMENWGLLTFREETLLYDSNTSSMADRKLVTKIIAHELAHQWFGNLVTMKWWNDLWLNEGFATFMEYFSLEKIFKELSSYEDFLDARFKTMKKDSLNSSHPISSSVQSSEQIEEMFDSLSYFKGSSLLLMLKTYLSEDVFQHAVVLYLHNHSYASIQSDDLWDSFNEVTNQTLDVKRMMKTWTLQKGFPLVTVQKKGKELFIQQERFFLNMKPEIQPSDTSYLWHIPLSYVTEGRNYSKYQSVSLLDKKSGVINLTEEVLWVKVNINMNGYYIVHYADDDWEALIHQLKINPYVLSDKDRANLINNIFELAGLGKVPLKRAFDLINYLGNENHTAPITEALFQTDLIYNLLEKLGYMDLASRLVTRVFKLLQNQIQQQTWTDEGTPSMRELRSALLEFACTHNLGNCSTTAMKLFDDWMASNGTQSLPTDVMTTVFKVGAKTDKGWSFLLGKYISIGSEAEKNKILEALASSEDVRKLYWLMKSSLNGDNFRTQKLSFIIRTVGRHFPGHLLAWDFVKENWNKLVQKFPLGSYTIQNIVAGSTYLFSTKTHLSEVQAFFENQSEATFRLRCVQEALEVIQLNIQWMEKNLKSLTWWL

Compound: CC[C@H](C)[C@H](NC(=O)[C@H](Cc1ccc(O)cc1)NC(=O)[C@@H](NC(=O)[C@@H](N)CCCNC(=N)N)C(C)C)C(=O)N[C@@H](Cc1c[nH]cn1)C(=O)N1CCC[C@H]1C(=O)N[C@@H](Cc1ccccc1)C(=O)O [Ang III]
- IC50 [1]: 80 nM

Compound: CC[C@H](C)[C@H](NC(=O)[C@H](Cc1ccc(O)cc1)NC(=O)[C@@H](NC(=O)[C@H](CCCNC(=N)N)NC(=O)[C@@H](N)CC(=O)O)C(C)C)C(=O)N[C@@H](Cc1c[nH]cn1)C(=O)N1CCC[C@H]1C(=O)N[C@@H](Cc1ccccc1)C(=O)O [Ang II]
- Inhibition of neurite outgrowth [2]: 25%
- IC50 [1]: 730 nM

Compound: CC[C@H](C)[C@H](NC(=O)[C@H](Cc1ccc(O)cc1)NC(=O)[C@@H](N)C(C)C)C(=O)N[C@@H](Cc1cnc[nH]1)C(=O)N1CCC[C@H]1C(=O)N[C@@H](Cc1ccccc1)C(=O)O [Ang IV, NH2-Val Tyr Ile His Pro Phe-COOH]
- Effect on memory in a passive avoidance task [3]: improve memory retention and retrieval
- Concentration of maximal effect on neurite outgrowth [2]: 10^−9 M
- Threshold concentration for inhibition of neurite outgrowth [2]: 10^−11 M
- IC50 ([2]; read-out: Half maximal inhibition of neurite outgrowth): 0.1 nM
- Displacement of [125I]LVV-haemorphin-7 and [125I]Ang IV binding ([4]; 1 μM unlabelled ligand, sheep hindbrain sections): displaced

Compound: CC[C@H](C)[C@H](NC(=O)[C@@H]1CCCN1C(=O)[C@H](Cc1c[nH]cn1)NC(=O)[C@H](CCCCNC(=O)[C@H](CCCNC(=N)N)NC(=O)OCc1ccccc1)NC(=O)[C@H](Cc1ccc(O)cc1)NC(=O)c1cccnc1)C(=O)O [CGP 42112] (Nicotinoyl-YK([Arg-Cbz])HPI-OH; N-terminus and C-terminus assumed)
- Concentration at which only 50% of the [125I]Ang IV sites were competed for [5]: 0.5 µM
- Effect on the inhibition of neurite outgrowth by Ang II [2]: ineffective
- Effect on the inhibition of neurite outgrowth by Ang IV [2]: no effect

Compound: CCCC[C@H](N)C(=O)N[C@@H](Cc1ccc(O)cc1)C(=O)N[C@H](C(N)=O)[C@@H](C)CC [Nle^1-Y-I-amide] (H-[Nle]-Tyr-Ile-NH2; N-terminus assumed)
- Effect on the inhibition of neurite outgrowth by Ang IV [2]: totally reversed

Compound: Cc1cc(Cn2cnc3c2C[C@@H](C(=O)O)N(C(=O)C(c2ccccc2)c2ccccc2)C3)ccc1N(C)C [PD 123319]
- IC50 ([6]; sheep cerebellar cortical membranes): 46000 nM
- Inhibition of [125I]Ang IV binding ([5]; at concentrations up to 10 μM): inactive
- Competition for [125I]Ang IV binding ([7]; at 10 μM): inactive
- Affinity of the Ang IV site for the ligand [8]: low to very low affinity
- Effect on the inhibition of neurite outgrowth by Ang II [2, 11]: ineffective
- Effect on the inhibition of neurite outgrowth by Ang IV [2, 12]: no effect
- Competition for [125I]Ang IV binding [1]: inactive

Compound: CC[C@H](C)[C@H](NC(=O)[C@@H]1CCCN1C(=O)[C@H](Cc1c[nH]cn1)NC(=O)[C@@H](NC(=O)[C@H](Cc1ccc(O)cc1)NC(=O)[C@@H](NC(=O)[C@H](CCCNC(=N)N)NC(=O)CNC)C(C)C)[C@@H](C)CC)C(=O)O [[Sar^1Ile^8]Ang II]
- Concentration at which only 50% of the [125I]Ang IV sites were competed for [5]: 10 µM
- Affinity of the Ang IV site for the ligand [8]: low to very low affinity
- Effect on the inhibition of neurite outgrowth by Ang II [2]: ineffective
- Effect on the inhibition of neurite outgrowth by Ang IV [2]: no effect

- Competition for [125I]Ang IV binding [1]: inactive
Compound: CCCCc1nc(Cl)c(CO)n1Cc1ccc(-c2ccccc2-c2nn[nH]n2)cc1 [losartan]
- Affinity of the Ang IV site for the ligand [8]: low to very low affinity
- Effect on the inhibition of neurite outgrowth by Ang II [2, 11]: ineffective
- Effect on the inhibition of neurite outgrowth by Ang IV [2, 12]: no effect

Compound: CN1[C@@H]2C[C@@H](OC(=O)[C@H](CO)c3ccccc3)C[C@H]1[C@@H]1O[C@@H]12 [scopolamine]
- Passive avoidance performance after amnesic agent ([9]; 70 nmol intracerebroventricularly followed by saline): learning and memory deficits
- Latency in finding the platform after amnesic agent [10]: significantly increased latencies

Compound: LVVYPWTQRF [LVV-haemorphin-7]
- IC50 [6]: 5.6 nM
- Effect on scopolamine-induced amnesia (latency to enter dark compartment) ([9]; 70 nmol scopolamine followed by 1.0 nmol peptide, intracerebroventricularly): completely reversed
- Passive avoidance performance, substance alone ([9]; saline followed by 1.0 nmol, intracerebroventricularly): performed worse than the scopolamine-treated rats
- IC50 ([7]; read-out: IC50 for competing for [125I]Ang IV binding): 2 nM
- Effect on scopolamine-induced latency in finding the platform [10]: totally reversed
- Displacement of [125I]LVV-haemorphin-7 and [125I]Ang IV binding [4]: displaced

From patent US7026280B2, “LV V-Haemorphin-7 neuroactive peptide and methods of use” (Howard Florey Institute of Experimental Physiology, priority 1996, dated 2006)
